pIC50, pKi: −log10 of the molar value. *1 amine or outer side, *2 acyl side, *3 side chain or, on linkers, in order; H or OH if unused. Where a SMILES comes first, the peptide text is derived from it. Bridges are numbered along the chain shown (N, C = ends). [ ]: non-standard residue; d: D form. The star is where a group is joined. Orn(4R-OH,5R-OH) = O=C([C@H](C[C@@H](O)[C@@H](O)N[*:3])N[*:1])[*:2]; Tetradecanoyl(10R,12S-Me2) = CC[C@H](C)C[C@H](C)CCCCCCCCC(=O)*; hTyr(3S-OH,4S-OH) = N[C@H](C(=O)O)[C@H](O)[C@@H](O)c1ccc(O)cc1; Gln(3R-OH) = NC(=O)C[C@@H](O)[C@H](N)C(=O)O; Pro(3S-OH) = O=C(O)[C@H]1NCC[C@@H]1O; Hyp = O=C(O)[C@@H]1C[C@@H](O)CN1
Experiments:
[1] = target: T1, Phospho-N-acetylmuramoyl-pentapeptide-transferase/UDP-N-acetylglucosamine--N-acetylmuramyl-(pentapeptide) pyrophosphoryl-undecaprenol N-acetylglucosamine transf (Escherichia coli K-12, UniProt P0A6W3+P17443); experiment: Inhibition of Escherichia coli MraY/MurG; format: protein assay
T1 sequence (P0A6W3 whole entry): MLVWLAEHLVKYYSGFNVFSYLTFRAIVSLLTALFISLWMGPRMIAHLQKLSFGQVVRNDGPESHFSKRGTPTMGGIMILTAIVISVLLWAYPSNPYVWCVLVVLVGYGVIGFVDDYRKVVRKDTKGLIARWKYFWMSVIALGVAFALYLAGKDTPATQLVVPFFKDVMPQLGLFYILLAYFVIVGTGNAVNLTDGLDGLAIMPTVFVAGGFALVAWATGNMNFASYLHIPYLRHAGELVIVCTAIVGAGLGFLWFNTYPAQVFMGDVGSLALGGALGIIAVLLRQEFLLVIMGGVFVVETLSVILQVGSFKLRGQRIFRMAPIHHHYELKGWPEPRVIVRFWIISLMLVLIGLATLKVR
T1 sequence (P17443 whole entry): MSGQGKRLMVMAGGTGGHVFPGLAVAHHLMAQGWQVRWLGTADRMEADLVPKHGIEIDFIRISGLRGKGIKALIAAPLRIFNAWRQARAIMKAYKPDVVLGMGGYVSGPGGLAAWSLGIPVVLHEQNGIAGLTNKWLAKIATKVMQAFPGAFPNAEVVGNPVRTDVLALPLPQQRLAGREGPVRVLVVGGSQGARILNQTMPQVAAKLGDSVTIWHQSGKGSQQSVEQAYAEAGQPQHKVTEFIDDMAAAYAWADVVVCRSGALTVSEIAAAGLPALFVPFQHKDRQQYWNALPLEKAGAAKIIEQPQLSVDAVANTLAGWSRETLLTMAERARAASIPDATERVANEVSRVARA

[2] = target: T2, UDP-N-acetylglucosamine--peptide N-acetylglucosaminyltransferase 110 kDa subunit (Homo sapiens) (UniProt O15294); experiment: Inhibition of OGT (unknown origin); settings: concentration not given here
T2 sequence (whole entry): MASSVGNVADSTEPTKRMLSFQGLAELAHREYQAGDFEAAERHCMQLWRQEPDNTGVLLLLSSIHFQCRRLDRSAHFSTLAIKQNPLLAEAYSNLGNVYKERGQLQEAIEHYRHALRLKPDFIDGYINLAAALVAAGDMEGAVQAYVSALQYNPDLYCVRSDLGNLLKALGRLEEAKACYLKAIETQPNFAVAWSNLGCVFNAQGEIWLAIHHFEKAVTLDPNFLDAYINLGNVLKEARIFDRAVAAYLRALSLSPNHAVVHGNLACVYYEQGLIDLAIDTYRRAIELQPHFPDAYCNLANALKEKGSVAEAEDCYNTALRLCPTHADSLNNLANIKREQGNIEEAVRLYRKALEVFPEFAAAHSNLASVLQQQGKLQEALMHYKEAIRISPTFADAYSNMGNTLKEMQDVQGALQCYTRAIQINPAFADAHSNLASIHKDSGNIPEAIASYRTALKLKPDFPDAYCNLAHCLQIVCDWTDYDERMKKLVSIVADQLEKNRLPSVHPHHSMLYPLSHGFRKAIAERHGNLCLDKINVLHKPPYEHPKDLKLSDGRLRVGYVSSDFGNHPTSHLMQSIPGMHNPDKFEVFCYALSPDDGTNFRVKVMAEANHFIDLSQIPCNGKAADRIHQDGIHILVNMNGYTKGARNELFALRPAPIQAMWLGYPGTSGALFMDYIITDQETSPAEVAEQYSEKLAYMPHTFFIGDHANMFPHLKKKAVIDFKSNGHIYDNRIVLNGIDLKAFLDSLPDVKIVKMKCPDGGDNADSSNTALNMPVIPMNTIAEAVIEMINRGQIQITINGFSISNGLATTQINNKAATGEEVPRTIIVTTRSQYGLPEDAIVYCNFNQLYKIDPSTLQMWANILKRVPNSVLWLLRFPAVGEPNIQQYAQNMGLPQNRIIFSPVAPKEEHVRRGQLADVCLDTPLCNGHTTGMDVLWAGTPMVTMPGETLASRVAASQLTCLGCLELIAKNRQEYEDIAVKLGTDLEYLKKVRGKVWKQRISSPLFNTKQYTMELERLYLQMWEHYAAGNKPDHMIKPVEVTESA

[3] = target: T3, UDP-N-acetylglucosamine--N-acetylmuramyl-(pentapeptide) pyrophosphoryl-undecaprenol N-acetylglucosamine transferase (Escherichia coli (strain K12)) (UniProt P17443); experiment: Inhibition of Escherichia coli MurG at 2.5 microg/ml
T3 sequence (whole entry): T1 sequence (P17443 whole entry)

Trypanosoma brucei = experiment: Inhibition of Trypanosoma brucei DPMS at 1 mM
[4] = Inhibition of MraY (unknown origin)
Streptococcus mutans = experiment: Inhibition of Streptococcus mutans sucrose-6-glucosyltransferase at 50 uM
[5] = target: T4, Ceramide glucosyltransferase (Homo sapiens) (UniProt Q16739); experiment: Inhibition of glucosylceramide synthase (unknown origin) at 5 uM
T4 sequence (whole entry): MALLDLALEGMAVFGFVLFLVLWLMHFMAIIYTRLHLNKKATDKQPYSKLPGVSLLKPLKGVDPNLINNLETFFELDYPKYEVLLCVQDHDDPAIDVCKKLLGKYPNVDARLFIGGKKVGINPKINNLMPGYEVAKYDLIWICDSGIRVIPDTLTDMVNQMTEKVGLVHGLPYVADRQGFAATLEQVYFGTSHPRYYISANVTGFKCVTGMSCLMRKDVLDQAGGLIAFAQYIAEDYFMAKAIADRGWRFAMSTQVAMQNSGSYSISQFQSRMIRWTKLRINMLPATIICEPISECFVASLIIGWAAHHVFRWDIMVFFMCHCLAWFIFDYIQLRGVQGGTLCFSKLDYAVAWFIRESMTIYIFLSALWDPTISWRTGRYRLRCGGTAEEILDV

[6] = Inhibition of candida albicans beta-(1,3)-glucan synthase assessed as decrease in transfer of radiolabelled glucose from UDP-[3H]-glucose onto acceptor
[7] = target: T5, CMP-N-acetylneuraminate-beta-galactosamide-alpha-2,3-sialyltransferase 1 (Homo sapiens, UniProt Q11201); experiment: Inhibition of ST3Gal 1 (unknown origin)
T5 sequence (Q11201 whole entry): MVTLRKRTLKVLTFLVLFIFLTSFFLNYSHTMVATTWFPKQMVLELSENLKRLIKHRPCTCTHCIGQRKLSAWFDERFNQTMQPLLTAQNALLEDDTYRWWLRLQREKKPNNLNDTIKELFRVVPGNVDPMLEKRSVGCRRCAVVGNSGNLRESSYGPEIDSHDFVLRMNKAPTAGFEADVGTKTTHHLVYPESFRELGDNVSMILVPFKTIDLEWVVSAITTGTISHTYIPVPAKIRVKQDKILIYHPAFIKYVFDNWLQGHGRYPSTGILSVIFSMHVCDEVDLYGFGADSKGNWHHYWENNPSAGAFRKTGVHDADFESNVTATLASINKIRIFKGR

## CCOC(=O)c1ccccc1-c1c2cc(Br)c(=O)c(Br)c-2oc2c(Br)c(O)c(Br)cc12
[1]
  IC50: 18.4 µM

## O=C(O)c1ccc2scnc2c1
[2]
  inhibition: > 30%

## O=C1N/C(=N/c2ccccc2)S/C1=C/c1cc(Br)cc(Cl)c1O
[3]
  inhibition: 71%

## O=C(O)CN1C(=O)/C(=C\c2cccc(OCc3ccccc3)c2)SC1=S
Trypanosoma brucei
  inhibition: 77%

## NC[C@H]1O[C@@H](O[C@H](c2cn(CCCCCOc3ccc(C(=O)c4ccccc4)cc3)nn2)[C@H]2O[C@@H](n3ccc(=O)[nH]c3=O)[C@H](O)[C@@H]2O)[C@H](O)[C@@H]1O
[4]
  pIC50: 4.00

## CCCCCCCC/C(I)=C(/I)CCCCCCCC(=O)OCC(COC(=O)CCCCCCC/C(I)=C(/I)CCCCCCCC)OC(=O)CCCCCCC/C(I)=C(/I)CCCCCCCC
Streptococcus mutans
  inhibition: 26.3%

## CCCCCCCCCCCCCCCC(=O)N[C@H](CN1CCOCC1)[C@H](O)c1ccccc1
[5]
  inhibition: 32%

## O=C(CN1C(=O)S/C(=C/c2ccc(Cl)cc2)C1=O)Nc1cc([N+](=O)[O-])ccc1O
[3]
  inhibition: 72%

## CCCCCCCC/C=C\CCCCCCCC(=O)O
Streptococcus mutans
  inhibition: 42.4%

## Cc1cc(/C=C2\C(=O)NC(=S)N(c3ccc(Cl)cc3)C2=O)c(C)n1-c1cc(C(=O)O)cc(C(=O)O)c1
[3]
  inhibition: 88%

## CCOC(=O)C(C(C)C)C(N)Cc1ccc(F)cc1 (configuration not stated)
[2]
  inhibition: > 30%

## COC1=C(O)c2c(O)cc(C)c3c(O)cc(O)c(c23)C1=O
[1]
  IC50: 54 µM

## NC[C@H]1O[C@@H](O[C@H](c2cn(Cc3ccc(COc4ccc(C(=O)c5ccccc5)cc4)cc3)nn2)[C@H]2O[C@@H](n3ccc(=O)[nH]c3=O)[C@H](O)[C@@H]2O)[C@H](O)[C@@H]1O
[4]
  pIC50: 4.30

## O=C(O)CN1C(=O)/C(=C\c2ccccc2O)SC1=S
Trypanosoma brucei
  inhibition: 77%

## COc1cc(/C=C2\C(=O)N(c3ccc(Cl)c(C(=O)O)c3)N=C2C)cc([N+](=O)[O-])c1O
[3]
  inhibition: 54%

## CC1=NN(c2ccc(Cl)c(C(=O)O)c2)C(=O)/C1=C\c1ccc(-c2ccccc2C(=O)O)o1
[3]
  inhibition: 48%

## CCCCCCCC/C=C\CCCCCCCC(=O)OC
Streptococcus mutans
  inhibition: 16.8%

## CC[C@H](C)C[C@H](C)CCCCCCCCC(=O)N[C@H]1C[C@@H](O)[C@@H](OCCN)NC(=O)[C@@H]2[C@@H](O)CCN2C(=O)[C@H]([C@H](O)CCN)NC(=O)[C@H]([C@H](O)[C@@H](O)c2ccc(O)cc2)NC(=O)[C@@H]2C[C@@H](O)CN2C(=O)[C@H]([C@@H](C)O)NC1=O
[6]
  pIC50: 9.00

## C[C@H](CCC(=O)O)[C@H]1CC[C@H]2[C@@H]3CC[C@@H]4C[C@H](O)CC[C@]4(C)[C@H]3CC[C@]12C [LITHOCHOLIC ACID]
[7]
  pIC50: 4.68

## NS(=O)(=O)c1ccc(-c2ccc(/C=C3\C(=O)N(c4cccc(S(N)(=O)=O)c4)N=C3C(F)(F)F)o2)cc1
[3]
  inhibition: 66%

## O=C(/C=C/c1cccs1)Nc1scc(-c2ccccc2)c1C(=O)O
[2]
  inhibition: > 30%

## CCCCCCCCCCCCC/C=C/[C@@H](O)[C@H](CN1CCOCC1)NC(=O)CCCCCCCCCCCCCCC
[5]
  inhibition: 5%

## CCCCCCCCCCCCC/C=C/[C@H](O)[C@H](CN1CCOCC1)NC(=O)CCCCCCCCCCCCCCC
[5]
  inhibition: 5%

## CCCCCCCCCCCCC/C=C/[C@@H](O)[C@@H](CN1CCOCC1)NC(=O)CCCCCCCCCCCCCCC
[5]
  inhibition: 73%

## CCCCCCCCCCCCC/C=C/[C@H](O)[C@@H](CN1CCOCC1)NC(=O)CCCCCCCCCCCCCCC
[5]
  inhibition: 5%

## CCCCCCCCCCCCCCCC(=O)N[C@H](CN1CCCC1)[C@H](O)c1ccccc1
[5]
  inhibition: 50%

## NC[C@H]1O[C@@H](O[C@H](c2cn(CCCCCCCCCCOc3ccc(C(=O)c4ccccc4)cc3)nn2)[C@H]2O[C@@H](n3ccc(=O)[nH]c3=O)[C@H](O)[C@@H]2O)[C@H](O)[C@@H]1O
[4]
  pIC50: 3.90

## NC[C@H]1O[C@@H](O[C@H](c2cn(CCCOc3ccc(C(=O)c4ccccc4)cc3)nn2)[C@H]2O[C@@H](n3ccc(=O)[nH]c3=O)[C@H](O)[C@@H]2O)[C@H](O)[C@@H]1O
[4]
  pIC50: 4.00

## CCCCCCCCCCCCC/C=C/[C@@H](O)[C@@H](CN1CCCC1)NC(=O)CCCCCCCCCCCCCCC
[5]
  inhibition: 87%

## CC[C@H](C)C[C@H](C)CCCCCCCCC(=O)N[C@H]1C[C@@H](O)[C@@H](O)NC(=O)[C@@H]2[C@@H](O)CCN2C(=O)[C@H]([C@H](O)CC(N)=O)NC(=O)[C@H]([C@H](O)[C@@H](O)c2ccc(O)cc2)NC(=O)[C@@H]2C[C@@H](O)CN2C(=O)[C@H]([C@@H](C)O)NC1=O ({Tetradecanoyl(10R,12S-Me2)}-[Orn(4R-OH,5R-OH)]T[Hyp][hTyr(3S-OH,4S-OH)][Gln(3R-OH)][Pro(3S-OH)]; lactam 1-C)
[6]
  pIC50: 7.15

## COc1cc(/C=C2\C(=O)NC(=O)N(c3ccc(C)cc3)C2=O)cc([N+](=O)[O-])c1O
[3]
  inhibition: 72%

## COc1c(N/C=C2\C(=O)N(c3ccccc3C)N=C2C)cc([N+](=O)[O-])cc1[N+](=O)[O-]
[3]
  inhibition: 66%

## O=C(O)CN1C(=O)/C(=C\c2ccc(OCc3ccccc3)c(OCc3ccccc3)c2)SC1=S
Trypanosoma brucei
  inhibition: 80%

## O=C1OC2(c3cc(I)c(O)cc3Oc3cc(O)c(I)cc32)c2ccccc21
[1]
  IC50: 166 µM

## C[C@H](CCCn1cc(CCCC(=O)O)nn1)[C@H]1CC[C@H]2[C@@H]3CC[C@@H]4C[C@H](O)CC[C@]4(C)[C@H]3CC[C@]12C
[7]
  pIC50: 5.30
  pKi: 5.66

## CCCCCCCCCC(=O)N[C@H](CN1CCOCC1)[C@H](O)c1ccccc1
[5]
  inhibition: 16%

From ChEMBL document CHEMBL3596159, “Beyond substrate analogues: new inhibitor chemotypes for glycosyltransferases” (Medchemcomm, 2014)
